The target of assay [1] is T1, human CXCR4 (Homo sapiens, UniProt P61073). Briefly: cell-based. Type of assay: binding. On the set-up: Jurkat cells that endogenously express the CXCR4 receptor; endogenous in cells; host or cells: Jurkat (ATCC).
Procedure: For receptor binding assays cells were resuspended in PBS/0.2% BSA. A total of 200 μl of the suspension containing 400,000 cells (Jurkat, CMS5) or 200,000 cells (CMS5/CXCR4) were incubated with 25 μl of the tracer solution (containing 3.1 kBq, approx. 0.1 nM) and 25 μl of the diluent or the competitor at different concentrations. […] After shaking for 2 h at room temperature, the incubation was terminated by centrifugation at 700×g and 4° C. for 4 min. Cell pellets were washed once with cold PBS followed by a second centrifugation step or for internalization studies, two times with an acidic wash buffer (20 mM NaOAc, pH5.0). Cell bound radioactivity was determined by using a gamma counter. Experiments were repeated 2-3 times in duplicates or triplicates. IC50 values of the binding curves were calculated by nonlinear regression on a one-site or two-site competition based model using Prism 3.0 (Graph Pad Software, Inc, San Diego). KD and Bmax values were determined by nonlinear regression with the Prism 3.0 according to the manufacturer's protocol.
The target of assay [2] is T1, human CXCR4.
Procedure: CXCR4 expression on the cell surface of trypsinized cells was determined using a phycoerythrine (PE)-labeled monoclonal rat antibody with specificity for human CXCR4 (1D9, BD Biosciences Pharmingen, Heidelberg, Germany). Trypsinized cells were washed with FACS buffer (PBS, 0.5% FCS) and 1×10^6 cells were stained with 0.5 μg antibody for 30 min. in the dark at 4° C. Cells were extensively washed with ice-cold FACS buffer and analyzed by flow cytometry. Nonspecific staining was assessed by PE-conjugated rat IgG2b,κ (BD Biosciences Pharmingen, Heidelberg, Germany). […] CXCR-4 staining was plotted against EGFP fluorescence (FL1).
(adapted from protocols published previously)[7, 8]; controls were incubated with diluent (PBS/0.1% BSA). Samples were immediately transferred to ice to avoid further internalization, centrifuged, washed with PBS/0.5% BSA and FACS staining for CXCR4 was performed as indicated above.

Where two headings read alike, the source gives them in different places. Numbered stars: 1 amine (or outer) side, 2 acyl side, 3 side chain; on linkers, the order of the positions; unused ones are H or OH. Square brackets hold non-standard residues; d marks the D form. Peptide text beside a SMILES is read from it. * marks the point of attachment. X3 = O=C(c1ccc(F)cc1)N(CCC[C@H](N[*:1])C(=O)[*:2])Cc1ccccc1; X1 = CN(CCC[C@H](C(=O)[*:2])N(C)[*:1])C(=O)c1ccc(F)cc1; X2 = O=C([C@H](CCCNCc1cccc2ccccc12)N[*:1])[*:2]; X4 = O=C([C@H](CCCNCc1ccc2ccccc2c1)N[*:1])[*:2]; 2Nal = N[C@@H](Cc1ccc2ccccc2c1)C(=O)O; Benzoyl(4-F) = O=C(c1ccc(F)cc1)*; dOrn = NCCC[C@@H](N)C(=O)O; Orn = NCCC[C@H](N)C(=O)O

T1 sequence (P61073 whole entry): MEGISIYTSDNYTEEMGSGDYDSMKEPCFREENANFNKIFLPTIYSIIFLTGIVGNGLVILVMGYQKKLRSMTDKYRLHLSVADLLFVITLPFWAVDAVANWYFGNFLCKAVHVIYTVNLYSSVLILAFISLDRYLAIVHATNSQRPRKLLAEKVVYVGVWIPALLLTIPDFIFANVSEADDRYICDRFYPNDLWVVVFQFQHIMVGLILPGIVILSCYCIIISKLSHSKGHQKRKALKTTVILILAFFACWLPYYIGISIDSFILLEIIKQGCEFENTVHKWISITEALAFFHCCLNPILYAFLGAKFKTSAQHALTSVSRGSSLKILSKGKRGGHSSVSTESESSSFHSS

A word on the IC50: it is the concentration that inhibits the measured activity by half. Read a low IC50 as higher potency. Compound `N=C(N)NCCC[C@@H]1NC(=O)[C@H](CCCNCc2ccc3ccccc3c2)NC(=O)[C@@H](Cc2ccc(O)cc2)NC(=O)CNC(=O)[C@H](Cc2ccc3ccccc3c2)NC1=O` [cyc[D-Tyr-Orn(N2)-Arg-Nal-Gly]] (cyclo([dY][X4]R[2Nal]G)) gave a 50% inhibitory concentration (IC50) against human CXCR4 [1] of 49 ± 1 nM.
On to `N=C(N)NCCC[C@@H]1NC(=O)[C@H](CCCNCc2cccc3ccccc23)NC(=O)[C@@H](Cc2ccc(O)cc2)NC(=O)CNC(=O)[C@H](Cc2ccc3ccccc3c2)NC1=O` [cyc[D-Tyr-Orn(N1)-Arg-Nal-Gly]] (cyclo([dY][X2]R[2Nal]G)), for which, at human CXCR4 [1], the half-inhibitory concentration (IC50) came out at 40 ± 3 nM.
In turn, `N=C(N)NCCC[C@@H]1NC(=O)[C@H](CCCNC(=N)N)NC(=O)[C@@H](Cc2ccc(O)cc2)NC(=O)CNC(=O)[C@H](Cc2ccc3ccccc3c2)NC(=O)[C@H](Cc2ccc3ccccc3c2)NC1=O` [BL 42, cyc[D-Tyr-Arg-Arg-Nal-Nal-Gly]] (cyclo([2Nal][2Nal]G[dY]RR)) gave a half-inhibitory concentration (IC50) on human CXCR4 [1] of over 1000 nM.
At human CXCR4 [1], `N=C(N)NCCC[C@@H]1NC(=O)[C@H](CCCNC(=O)c2ccc(F)cc2)NC(=O)[C@@H](Cc2ccc(O)cc2)NC(=O)CNC(=O)[C@H](Cc2ccc3ccccc3c2)NC1=O` [cyc[D-Tyr-Orn(FB)-Arg-Nal-Gly]] (cyclo([dY][Orn](Benzoyl(4-F))R[2Nal]G)) returned an IC50 of 11 nM. That is a double-digit nanomolar value.
For the compound SDF-1α, at human CXCR4 [2] (CMS5/CXCR4 cells, 100 nM SDF-1α, 1 hr at 37° C., control-treated […]), the “cells stained positive for CXCR4 after pre-incubation” value came to 54.7%. For the same compound, the “mean fluorescence intensity of CXCR4 staining” value on human CXCR4 [2] (CMS5/CXCR4 cells, mock treated 209.0) is given as 80.5; on human CXCR4 [2] (Jurkat cells, drop from 385.4), 155.4. At human CXCR4 [2] (parental CMS5 cells, in the presence of SDF-1α, from 7.9), the CXCR4-background staining worked out at 2.7%.
As for `N=C(N)NCCC[C@@H]1NC(=O)[C@H](CCCN(Cc2ccccc2)C(=O)c2ccc(F)cc2)NC(=O)[C@@H](Cc2ccc(O)cc2)NC(=O)CNC(=O)[C@H](Cc2ccc3ccccc3c2)NC1=O` [cyc[D-Tyr-Orn(Bz,FB)-Arg-Nal-Gly]] (cyclo([2Nal]G[dY][X3]R)), the IC50 against human CXCR4 [1] is 100 nM.
At human CXCR4 [1], `CN(CCC[C@@H]1C(=O)N[C@@H](CCCNC(=N)N)C(=O)N[C@@H](Cc2ccc3ccccc3c2)C(=O)NCC(=O)N[C@H](Cc2ccc(O)cc2)C(=O)N1C)C(=O)c1ccc(F)cc1` [cyc[D-Tyr-(Me)D-Orn(Me,FB)-Arg-Nal-Gly]] (cyclo([2Nal]G[dY][X1]R)) came in with a half-maximal inhibitory concentration (IC50) of 59 nM.
On the same count and under the same terms, for `N=C(N)NCCC[C@@H]1NC(=O)[C@@H](CCCNC(=O)c2ccc(F)cc2)NC(=O)[C@@H](Cc2ccc(O)cc2)NC(=O)CNC(=O)[C@H](Cc2ccc3ccccc3c2)NC1=O` [cyc[D-Tyr-D-Orn(FB)-Arg-Nal-Gly]] (cyclo([2Nal]G[dY][dOrn](Benzoyl(4-F))R)) the value was 86 nM.

These data come from US8628750B2, “Cancer imaging and treatment” (Technische Universitat Munchen, priority 2006, dated 2014).
